Source: PubChem BioAssay AID248 (DTP/NCI, 2004)
Several values for one entry are separate records, joined by “and”; a condition that tells them apart may be missing. Equal values may be shown once. Inconclusive results and toxic doses are left out.

Test system: L1210 leukemia ip in BDF1 mice, survival T/C
Assay: NCI In Vivo Anticancer Drug Screen. Data for tumor model L1210 Leukemia (intraperitoneal) in B6D2F1 (BDF1) mice
Conditions: endpoint: mean survival time, higher = longer survival
Outline: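 Mice bearing the transplanted tumor received compound or vehicle. Survival of the treated group was divided by that of the vehicle-treated control group to give the ratio.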

[1] = dose: 50.0 mg/kg/injection, schedule: Q01DX001 (ip), vehicle: saline
[2] = dose: 100.0 mg/kg/injection, schedule: Q01DX001 (ip), vehicle: saline
[3] = dose: 200.0 mg/kg/injection, schedule: Q01DX001 (ip), vehicle: saline
[4] = dose: 400.0 mg/kg/injection, schedule: Q01DX001 (ip), vehicle: saline
[5] = dose: 100.0 mg/kg/injection, schedule: Q01DX009 (ip), vehicle: saline with Tween-80
[6] = dose: 200.0 mg/kg/injection, schedule: Q01DX009 (ip), vehicle: saline with Tween-80
[7] = dose: 100.0 mg/kg/injection, schedule: Q01DX009 (ip), vehicle: Klucel (hydroxypropylcellulose) (HPC)
[8] = dose: 100.0 mg/kg/injection, schedule: Q04DX003 (ip), vehicle: Klucel (hydroxypropylcellulose) (HPC)
[9] = dose: 200.0 mg/kg/injection, schedule: Q01DX009 (ip), vehicle: Klucel (hydroxypropylcellulose) (HPC)
[10] = dose: 200.0 mg/kg/injection, schedule: Q04DX003 (ip), vehicle: Klucel (hydroxypropylcellulose) (HPC)
[11] = dose: 400.0 mg/kg/injection, schedule: Q01DX009 (ip), vehicle: Klucel (hydroxypropylcellulose) (HPC)
[12] = dose: 400.0 mg/kg/injection, schedule: Q04DX003 (ip), vehicle: Klucel (hydroxypropylcellulose) (HPC)

SMILES: N#CCCOCC(COCCC#N)OCCC#N
- T/C [1]: 106 % of control
- T/C (dose: 50.0 mg/kg/injection, schedule: Q01DX009 (ip), vehicle: saline): 124 % of control
- T/C [2]: 108 % of control
- T/C (dose: 100.0 mg/kg/injection, schedule: Q01DX009 (ip), vehicle: saline): 108 % of control
- T/C [3]: 101 % of control
- T/C [4]: 92 % of control

SMILES: C=CC1CC(=O)N1C (stereo unspecified)
- T/C (dose: 100.0 mg/kg/injection, schedule: Q04DX003 (ip), vehicle: saline): 100 % of control
- T/C (dose: 200.0 mg/kg/injection, schedule: Q04DX003 (ip), vehicle: saline): 110 % of control
- T/C (dose: 400.0 mg/kg/injection, schedule: Q04DX003 (ip), vehicle: saline): 112 % of control

SMILES: COc1ccc2c(c1)CC(=CO)CC2=O.COc1ccc2c(c1)CC/C(=C/O)C2=O.[Cu]
- T/C [5]: 98 % of control
- T/C (dose: 100.0 mg/kg/injection, schedule: Q04DX003 (ip), vehicle: saline sonified): 101 % of control
- T/C [6]: 110 % of control
- T/C (dose: 200.0 mg/kg/injection, schedule: Q04DX003 (ip), vehicle: saline sonified): 90 % of control
- T/C (dose: 400.0 mg/kg/injection, schedule: Q04DX003 (ip), vehicle: saline sonified): 104 % of control

SMILES: Cc1cccc(C)c1NC(=O)C(Cl)c1ccccc1 (stereo unspecified)
- T/C [7]: 107 % of control
- T/C [8]: 98 % of control
- T/C [9]: 91 % of control
- T/C [10]: 98 % of control
- T/C [11]: 98 % of control
- T/C [12]: 98 % of control

SMILES: O=C(Nc1cc(C(F)(F)F)ccc1Cl)Nc1ccc(Cl)cc1[N+](=O)[O-]
- T/C [7]: 93 % of control
- T/C [9]: 87 % of control
- T/C [11]: 100 % of control

SMILES: Cc1ccc(/C=C/S(=O)(=O)c2ccccc2)cc1
- T/C (dose: 100.0 mg/kg/injection, schedule: Q01DX001 (ip), vehicle: acetone): 109 % of control
- T/C (dose: 100.0 mg/kg/injection, schedule: Q01DX009 (ip), vehicle: acetone): 87 % of control
- T/C (dose: 100.0 mg/kg/injection, schedule: Q04DX003 (ip), vehicle: acetone): 97 % of control
- T/C (dose: 200.0 mg/kg/injection, schedule: Q01DX001 (ip), vehicle: acetone): 98 % of control
- T/C (dose: 200.0 mg/kg/injection, schedule: Q01DX009 (ip), vehicle: acetone): 87 % of control
- T/C (dose: 200.0 mg/kg/injection, schedule: Q04DX003 (ip), vehicle: acetone): 103 % of control
- T/C (dose: 400.0 mg/kg/injection, schedule: Q01DX001 (ip), vehicle: acetone): 98 % of control
- T/C (dose: 400.0 mg/kg/injection, schedule: Q01DX009 (ip), vehicle: acetone): 88 % of control
- T/C (dose: 400.0 mg/kg/injection, schedule: Q04DX003 (ip), vehicle: acetone): 105 % of control

SMILES: COc1ccc2c(=O)c3c(O)cc(OC)cc3oc2c1
- T/C [2]: 97 % of control
- T/C [3]: 101 % of control
- T/C [4]: 87 % of control and 90 % of control

SMILES: Cc1ccc(C(O)c2cnc(C)n2Cc2ccccc2)cc1 (stereo unspecified)
- T/C (dose: 100.0 mg/kg/injection, schedule: Q01DX009 (ip), vehicle: carboxymethylcellulose (CMC)): 96 % of control
- T/C (dose: 100.0 mg/kg/injection, schedule: Q04DX002 (ip), vehicle: Klucel (hydroxypropylcellulose) (HPC)): 94 % of control
- T/C (dose: 100.0 mg/kg/injection, schedule: Q04DX002 (ip), vehicle: carboxymethylcellulose (CMC)): 94 % of control and 112 % of control
- T/C (dose: 100.0 mg/kg/injection, schedule: Q04DX003 (ip), vehicle: carboxymethylcellulose (CMC)): 107 % of control
- T/C (dose: 200.0 mg/kg/injection, schedule: Q01DX009 (ip), vehicle: carboxymethylcellulose (CMC)): 100 % of control and 107 % of control
- T/C (dose: 200.0 mg/kg/injection, schedule: Q04DX002 (ip), vehicle: Klucel (hydroxypropylcellulose) (HPC)): 109 % of control
- T/C (dose: 200.0 mg/kg/injection, schedule: Q04DX002 (ip), vehicle: carboxymethylcellulose (CMC)): 94 % of control and 98 % of control
- T/C (dose: 200.0 mg/kg/injection, schedule: Q04DX003 (ip), vehicle: carboxymethylcellulose (CMC)): 92 % of control
- T/C (dose: 400.0 mg/kg/injection, schedule: Q01DX009 (ip), vehicle: carboxymethylcellulose (CMC)): 96 % of control and 86 % of control
- T/C (dose: 400.0 mg/kg/injection, schedule: Q04DX002 (ip), vehicle: Klucel (hydroxypropylcellulose) (HPC)): 88 % of control
- T/C (dose: 400.0 mg/kg/injection, schedule: Q04DX002 (ip), vehicle: carboxymethylcellulose (CMC)): 94 % of control and 95 % of control
- T/C (dose: 400.0 mg/kg/injection, schedule: Q04DX003 (ip), vehicle: carboxymethylcellulose (CMC)): 96 % of control

SMILES: O=C(Nc1cc(C(F)(F)F)cc(C(F)(F)F)c1)Nc1ccccc1C(F)(F)F
- T/C [7]: 98 % of control
- T/C [9]: 102 % of control
- T/C [11]: 90 % of control

SMILES: CCOC(=O)c1cc(/C=C/C=O)oc1N
- T/C (dose: 100.0 mg/kg/injection, schedule: Q04DX002 (ip), vehicle: saline with Tween-80): 106 % of control
- T/C (dose: 200.0 mg/kg/injection, schedule: Q04DX002 (ip), vehicle: saline with Tween-80): 101 % of control
- T/C (dose: 400.0 mg/kg/injection, schedule: Q04DX002 (ip), vehicle: saline with Tween-80): 97 % of control

SMILES: c1nc(Sc2ncnc3nc[nH]c23)c2[nH]cnc2n1
- T/C [1]: 108 % of control
- T/C (dose: 75.0 mg/kg/injection, schedule: Q01DX015 (ip), vehicle: saline): 114 % of control
- T/C [2]: 104 % of control
- T/C (dose: 150.0 mg/kg/injection, schedule: Q01DX015 (ip), vehicle: other): 213 % of control
- T/C [3]: 119 % of control
- T/C (dose: 238.0 mg/kg/injection, schedule: Q01DX001 (ip), vehicle: saline): 115 % of control
- T/C (dose: 300.0 mg/kg/injection, schedule: Q01DX015 (ip), vehicle: other): 176 % of control
- T/C (dose: 356.0 mg/kg/injection, schedule: Q01DX001 (ip), vehicle: saline): 117 % of control
- T/C (dose: 600.0 mg/kg/injection, schedule: Q01DX015 (ip), vehicle: other): 108 % of control
- T/C (dose: 600.0 mg/kg/injection, schedule: Q01DX015 (ip), vehicle: saline): 117 % of control

SMILES: COC(=O)c1ccccc1NC(=O)c1ccc(C(=O)Nc2ccccc2C(=O)OC)cc1
- T/C [7]: 107 % of control
- T/C [9]: 92 % of control
- T/C [11]: 92 % of control

SMILES: CC(=O)OCC1OC(OC(C)=O)C(O)C(OC(C)=O)C1OC(C)=O (stereo unspecified)
- T/C (dose: 100.0 mg/kg/injection, schedule: Q01DX001 (ip), vehicle: Klucel (hydroxypropylcellulose) (HPC)): 113 % of control
- T/C (dose: 200.0 mg/kg/injection, schedule: Q01DX001 (ip), vehicle: Klucel (hydroxypropylcellulose) (HPC)): 102 % of control
- T/C (dose: 400.0 mg/kg/injection, schedule: Q01DX001 (ip), vehicle: Klucel (hydroxypropylcellulose) (HPC)): 117 % of control

SMILES: NC(=O)NCCO
- T/C [2]: 98 % of control
- T/C [3]: 106 % of control
- T/C [4]: 98 % of control

SMILES: O=P(OCC(Br)CBr)(OCC(Br)CBr)OCC(Br)CBr (stereo unspecified)
- T/C (dose: 50.0 mg/kg/injection, schedule: Q04DX003 (ip), vehicle: Klucel (hydroxypropylcellulose) (HPC)): 107 % of control
- T/C [8]: 98 % of control
- T/C [10]: 106 % of control
- T/C [12]: 106 % of control

SMILES: CCCOC(=O)N(CC)C(=NCC)c1ccc(NC(=O)c2ccc(C(=O)Nc3ccc(C(=NCC)N(CC)C(=O)OCCC)cc3)cc2)cc1
- T/C (dose: 2.5 mg/kg/injection, schedule: Q01DX015 (ip), vehicle: methylcellulose (MC)): 95 % of control
- T/C (dose: 5.0 mg/kg/injection, schedule: Q01DX015 (ip), vehicle: methylcellulose (MC)): 101 % of control
- T/C (dose: 10.0 mg/kg/injection, schedule: Q01DX015 (ip), vehicle: methylcellulose (MC)): 101 % of control
- T/C (dose: 20.0 mg/kg/injection, schedule: Q01DX015 (ip), vehicle: methylcellulose (MC)): 109 % of control
- T/C (dose: 37.5 mg/kg/injection, schedule: Q01DX015 (ip), vehicle: methylcellulose (MC)): 112 % of control
- T/C (dose: 75.0 mg/kg/injection, schedule: Q01DX015 (ip), vehicle: methylcellulose (MC)): 90 % of control
- T/C (dose: 150.0 mg/kg/injection, schedule: Q01DX015 (ip), vehicle: methylcellulose (MC)): 92 % of control
- T/C (dose: 300.0 mg/kg/injection, schedule: Q01DX015 (ip), vehicle: methylcellulose (MC)): 93 % of control

SMILES: N#C/C=C/c1cccc([N+](=O)[O-])c1
- T/C [5]: 102 % of control
- T/C [6]: 93 % of control
- T/C (dose: 400.0 mg/kg/injection, schedule: Q01DX009 (ip), vehicle: saline with Tween-80): 98 % of control

SMILES: C[N+](C)(C)c1ccccn1
- T/C (dose: 75.0 mg/kg/injection, schedule: Q01DX001 (ip), vehicle: saline): 102 % of control

SMILES: CCOC(=O)C1CC2(SCCS2)C(C(=O)O)CC12SCCS2 (stereo unspecified)
- T/C (dose: 100.0 mg/kg/injection, schedule: Q04DX003 (ip), vehicle: other): 103 % of control
- T/C (dose: 200.0 mg/kg/injection, schedule: Q04DX003 (ip), vehicle: other): 92 % of control
- T/C (dose: 400.0 mg/kg/injection, schedule: Q04DX003 (ip), vehicle: other): 97 % of control
